The values that follow come from PMC9612231, “Antileishmanial Anthracene Endoperoxides: Efficacy In Vitro, Mechanisms and Structure-Activity Relationships” (Molecules, 2022).

A value given as a limit tells only on which side of the number the result lay.

The first test deals with J774 macrophages. The test can be described thus: Resazurin viability assay for J774 macrophages. Format: cell-based, murine. The settings on record: Mus musculus, J774, 48 h, resazurin viability, endpoint 48 h, 10^5 J774 cells/mL, mean ± SD of 4–8 experiments; read-out: J774 IC50. Here is the method:
(§1) The influence of AcEP and their analogs (Ac) on the viability of cells was tested in Leishmania tarentolae promastigotes (LtP) and J774 macrophages (Table 2). Based on the changes of viability of the respective cell lines at different compound concentrations, IC50 values were calculated. In Table 2, the IC50 values in both cell lines were compared for the individual compounds. From the ratio of IC50 values in J774 macrophages to IC50 values in LtP, an in vitro selectivity was calculated.
The murine macrophage cell line J774A.1 (ATCC, TIB-67™, Wesel, Germany) was cultivated up to passage 30 in DMEM (high glucose, 3.7 g/L NaHCO3, pH 7.4) with 25,000 IU/L penicillin, 25 mg/L streptomycin, and 10% FCS (heat-inactivated) in 50 mL TubeSpin bioreactors. J774 cells were incubated at 37 °C and 5% CO2 on a roller culture apparatus (5 rpm) in a Heraeus Cytoperm 8080 incubator (Thermo Electron Corp., Vienna, Austria). To determine the cell count, the cell suspension was re-suspended and diluted 1:2 with phosphate-buffered saline (PBS): 137 mM NaCl, 1.4 mM KH2PO4, 4.3 mM Na2HPO4, and 2.7 mM KCl, pH 7.4. After fixation of the cells by mixing the cell suspension 1:1 with a formaldehyde solution (2%, v/v), aliquots of the resulting suspension were transferred into a standard Neubauer chamber (VWR, Austria) and counted manually using a light microscope (Motic BA310, Vienna, Austria) at a magnification of 40 times. J774 cells were passaged twice a week in a ratio of 1:10.
DMEM containing 25,000 U/L penicillin, 25 mg/L streptomycin, 10% FCS, and 1 × 10^5 J774/mL was prepared. This mixture (200 µL) was distributed in cell culture-treated 96-well plates, except the control wells which contained only DMEM. The cells were incubated for 24 h at 37 °C and 5% CO2 to allow attachment. Afterwards the medium and non-adherent cells were removed by washing with PBS, and then, 200 µL DMEM was added to attached cells. Compounds dissolved in DMSO were added in starting concentrations of 25 µM (Pen) or 200 µM (AcEP/Ac), and then, serial dilutions were carried out resulting in the same concentration steps as listed for LtP. For each compound concentration triplicates on each plate were performed. […], 50 µL of resazurin solution (final concentration 20 µM) was added, and after 4 h of incubation, the fluorescence was measured at 560 nm excitation and 590 nm emission using a plate reader (Perkin Elmer EnSpire, Rodgau, Germany). All tests were repeated at least on four different weeks of cultivation.
(§2) Calculations were carried out using Microsoft Excel 2016 (Microsoft). The graphs were created using Origin 6.1 (OriginLab Corporation, Northampton, MA, USA). For all groups of experimental data, mean and standard deviation (SD) were calculated. Statistically significant differences between groups of sample data were identified by unpaired two-tailed Student’s t-test. Differences on the level of p < 0.05 were considered significant. The number of replicates is indicated at the respective figures/tables. The half-maximal inhibitory concentrations (IC50) were determined from non-linear concentration-response curves using a four-parameter logistic model and expressed as the mean ± SD.
A general note: The colour change of resazurin is a common sign of viable cells or microbes.
Take `CC(=O)OCC1OC(Oc2c3ccccc3c(OC3OC(COC(C)=O)C(OC(C)=O)C(OC(C)=O)C3OC(C)=O)c3ccccc23)C(OC(C)=O)C(OC(C)=O)C1OC(C)=O` (stereo not shown) [BisGluAc]: the half-inhibitory concentration (IC50) – broadly, the concentration that inhibits the measured activity by half – is more than 200 µM.
With `c1ccc(-c2c3ccccc3c(-c3ccccc3)c3ccccc23)cc1` [DPAc], the IC50 worked out at 136 ± 35 µM.
On the same count and under the same terms, for `CC(=O)OCC1OC(Oc2c3ccccc3cc3ccccc23)C(OC(C)=O)C(OC(C)=O)C1OC(C)=O` (stereo not shown) [MonoGluAc] the value was 101 ± 7.8 µM; for `N=C(N)c1ccc(OCCCCCOc2ccc(C(=N)N)cc2)cc1` [Pen, pentamidine, reference compound], approximately 12 µM.
Take `c1cncc(-c2c3ccccc3c(-c3cccnc3)c3ccccc23)c1` [mPyAc]: the IC50 came to 63.7 ± 7.6 µM.
Still for that read-out and setting: under `COc1ccccc1-c1c2ccccc2c(-c2ccccc2OC)c2ccccc12` [oOMeAc] stands more than 200 µM; under `c1ccc(-c2c3ccccc3c(-c3ccccn3)c3ccccc23)nc1` [oPyAc], 70 ± 10.5 µM.

Staying with this test, now noted: resazurin viability, endpoint 48 h, 10^5 J774 cells/mL, mean ± SD of 4–8 experiments; read-out: J774 IC50.
With `N=C(N)c1ccc(OCCCCCOc2ccc(C(=N)N)cc2)cc1` [Pen, pentamidine, reference compound], the IC50 amounted to 12.3 ± 3.96 µM.

A further test deals with Leishmania tarentolae promastigotes (LtP). Description: Resazurin viability assay for LtP. Format: cell-based. The settings on record: Leishmania tarentolae; resazurin viability, endpoint 48 h, 2 × 10^6 LtP/mL, mean ± SD of 4–8 experiments; read-out: LtP IC50. On the procedure:
as §1
LtP (strain P10 from Jena Bioscience, Jena, Germany) were cultivated according to manufacturer instructions up to passage 50 in brain heart infusion medium (37 g/L, pH 7.4) and supplemented with 5 mg/L hemin and 25,000 IU/L penicillin and 25 mg/L streptomycin in 50 mL TubeSpin bioreactors (TPP, Trasadingen. Switzerland). LtP were grown at 27 °C in an incubator (Ehret, Emmendingen, Germany) and agitated at a frequency of 0.05 s^−1. […] For experiments, LtP were used one day after passage. The cell number was calculated by measuring the optical density (OD) of the culture at 600 nm with a U-1100 photometer (Hitachi Ltd., Tokyo, Japan) and applying the formula × 10^6 cells/mL = OD600nm × 0.969 × 124 × dilution factor [53].
Assay medium of YEM (20.7 g/L yeast extract powder, 1.2 g/L K2HPO4, 0.2 g/L KH2PO4, 2.9 g/L glucose, pH 7.4) and PBS (1:1, v/v), 25,000 U/L penicillin, 25 mg/L streptomycin, and 7.7 µM hemin was prepared. Aliquots of 200 µL of this medium and 2 × 10^6 LtP/mL (where required) were distributed in non-treated cell culture 96-well plates. Compounds (dissolved in DMSO) were added with starting concentrations of 25 µM (Pen) or 200 µM (AcEP/Ac), and then, serial dilutions were carried out resulting in a set of concentrations (25, 5, 1, 0.2, 0.04, and 0.008 µM) or (200, 40, 8, 1.6, 0.32, and 0.064 µM). For each compound concentration, at least triplicates on each plate were performed. After incubation of the plates at 27 °C for 48 h, 50 µL of resazurin solution (final concentration in wells 20 µM) was added to each well and after 4 h of incubation, the fluorescence was measured at 560 nm excitation and 590 nm emission using a plate reader (Perkin Elmer EnSpire, Rodgau, Germany) (adapted from). Combination assays for viability in the presence of PIH and NAC were performed the same way. […] All tests were repeated at least on four different weeks of cultivation.
as §2
As to `CC(=O)OCC1OC(Oc2c3ccccc3c(OC3OC(COC(C)=O)C(OC(C)=O)C(OC(C)=O)C3OC(C)=O)c3ccccc23)C(OC(C)=O)C(OC(C)=O)C1OC(C)=O` (stereo not shown) [BisGluAc], the IC50 is more than 200 µM.
As for `c1ccc(-c2c3ccccc3c(-c3ccccc3)c3ccccc23)cc1` [DPAc], the IC50 stood at 197 ± 92 µM.
Turning to `CC(=O)OCC1OC(Oc2c3ccccc3cc3ccccc23)C(OC(C)=O)C(OC(C)=O)C1OC(C)=O` (stereo not shown) [MonoGluAc], the IC50 was 158 ± 45.1 µM.
On to `N=C(N)c1ccc(OCCCCCOc2ccc(C(=N)N)cc2)cc1` [Pen, pentamidine, reference compound], for which the 50% inhibitory concentration (IC50) is 0.52 ± 0.16 µM.
On the same count and under the same terms, under `c1cncc(-c2c3ccccc3c(-c3cccnc3)c3ccccc23)c1` [mPyAc] stands 52.5 ± 3.3 µM; under `COc1ccccc1-c1c2ccccc2c(-c2ccccc2OC)c2ccccc12` [oOMeAc], 73.3 ± 25.2 µM.
Still for that read-out and setting: for `c1ccc(-c2c3ccccc3c(-c3ccccn3)c3ccccc23)nc1` [oPyAc] the value was 34.5 ± 12.8 µM.

Still in this test, the particulars now being: ratio of IC50 in J774 macrophages to IC50 in LtP.
In the case of `c1ccc(-c2c3ccccc3c(-c3ccccc3)c3ccccc23)cc1` [DPAc], the “Selectivity IC50,J774/IC50,LtP” value stood at 0.7.
Same read-out and setting: under `CC(=O)OCC1OC(Oc2c3ccccc3cc3ccccc23)C(OC(C)=O)C(OC(C)=O)C1OC(C)=O` (stereo not shown) [MonoGluAc] stands 0.6.
In the case of `c1cncc(-c2c3ccccc3c(-c3cccnc3)c3ccccc23)c1` [mPyAc], the “Selectivity IC50,J774/IC50,LtP” value is recorded as 1.2.
As for `COc1ccccc1-c1c2ccccc2c(-c2ccccc2OC)c2ccccc12` [oOMeAc], the “Selectivity IC50,J774/IC50,LtP” value was more than 2.7.
In the case of `c1ccc(-c2c3ccccc3c(-c3ccccn3)c3ccccc23)nc1` [oPyAc], the “Selectivity IC50,J774/IC50,LtP” value stood at 2.0.

Still in this test, the particulars now being: resazurin viability, endpoint 48 h, 2 × 10^6 LtP/mL, mean ± SD of 4–8 experiments.
Consider `N=C(N)c1ccc(OCCCCCOc2ccc(C(=N)N)cc2)cc1` [Pen, pentamidine, reference compound], for which the “LtP IC50” value is given as “submicromolar”.

Staying with this test, now noted: viability assay.
Take `c1ccc(-c2c3ccccc3c(-c3ccccc3)c3ccccc23)cc1` [DPAc]: the “Activity against LtP, in words” value is “rather inactive”.
